The results in this text go back to ChEMBL document CHEMBL1146937, “Nitrobenzylcarbamate prodrugs of cytotoxic acridines for potential use with nitroreductase gene-directed enzyme prodrug therapy” (Bioorg Med Chem Lett, 2006).

Activity calls are given as the source filed them. The rule behind the calls is not given here.

Holding throughout (format): functional, cell-based
The subject of one test is A549. Kind of test: Antiproliferative activity against A549 cell line. The settings on record: Homo sapiens.
The subject of another test is HT-29. Kind of test: Antiproliferative activity against HT29 cell line. The conditions noted are these: Homo sapiens.
The subject of a further test is V79. Kind of test: Antiproliferative activity against V79 cell line. The conditions noted are these: Cricetulus griseus.
In a further test the test system is L1210. Kind of test: Antiproliferative activity against L1210 cell line. The settings on record: Mus musculus.

Turning to `O=C(Nc1ccc2cc3ccccc3nc2c1CO)OCc1ccc([N+](=O)[O-])cc1`, the IC50 in the test with A549 turned out to be 3.5 µM; in the test with HT-29, 2.5 µM; in the test on V79, 3.5 µM.
The molecule `CCOC(=O)Nc1ccc2cc3ccccc3nc2c1COC(=O)OCC` showed a concentration for half-maximal inhibition (IC50) in the test on HT-29 of 4.5 µM.
Regarding `Nc1ccc2cc3ccccc3nc2c1CO`, in the test on L1210, the result was Active.
As for `O=C(Nc1ccc2cc3ccccc3nc2c1COC(=O)OCc1ccc([N+](=O)[O-])cc1)OCc1ccc([N+](=O)[O-])cc1`, the IC50 with A549 was greater than 10 µM; in the test with HT-29, 9 µM; with V79, greater than 10 µM.

The IC50 is the concentration at which inhibition is half-maximal. A higher IC50 goes with weaker potency in that assay.
